“And” between values parts separate entries of the source, which are not always exact repeats. Identical values can stand only once. “Also recorded” adds a separate entry of the source.
What was measured:
[1] = test system: Female Charles River CD rats (pregnancy); experiment: Post-coital contraceptive effect in the rat: single intrauterine (right horn) administration on D5 of pregnancy; assay type: in vivo; details: for Number of placental sites, left horn / Number of placental sites, right horn (injected) / Number of viable fetuses, left horn / Number of viable fetuses, right horn (injected) / Uterine weight, left horn and contents / Uterine weight, right horn (injected) and contents: autopsy D20, 15 rats/group; for Uterine weight, left horn and contents / Uterine weight, right horn (injected) and contents: in g
Method: Female Charles River CD® rats (200-210 g) were allowed to cohabit with proven males; the presence of sperm in the vaginal smear was considered day 1 (D1) of pregnancy. In order to lessen the problem of variability between experiments, 5 rats were autopsied at each dose level and the study replicated 3 times to accumulate a total of 15 rats in each experimental group. Luteinizing hormone-releasing hormone was dissolved in 2 μl of 0.9% NaCl and injected into the right horn of the uterus below the utero-tubal junction between 0945 and 1015 h on D5. One group of control animals received an intrauterine (IU) injection of 2 μl saline into the right horn on D5. The control animals were autopsied in groups of 5 rats and replicated 3 times to accumulate a total of 15 rats. On D20 the rats were sacrificed, and the uterine horns were divided and weighed individually. The number of viable fetuses as well as the number of placental sites in each horn was recorded. Fetuses from both horns, in control and experimental groups, were examined and weighed individually. A viable fetus is defined as one which compares in anatomical development and weight to a normal control fetus at D20 of gestation. Statistical analysis of the number of viable fetuses and placental sites in each horn was determined by the Kruwalc-Henderson method (Proc. Third Am. Conference of the SAS Users Group International, SAS Institute, Raleigh, North Carolina (1978)); uterine weights of each horn were subjected to analysis of variance (Conover, Practical Nonparametric Statistics, N.Y. John Wiley and Sons, Inc. page 256 (1979)).
Following the same procedure, [D-Trp^6, des-Gly-NH2^10 ]LHRH ethylamide (a representative LHRH agonist analogue) was injected into the uterine lumen of the right uterine horn of female Charles River CD® rats on day 5 after coitus. The status of the pregnancy as indicated by viable fetuses was as follows: […]

[2] = test system: Female Charles River CD rats (pregnancy); experiment: Single intravaginal or intrajugular administration on D5 of pregnancy; assay type: in vivo, rat; details: for Number of placental sites, left horn / Number of placental sites, right horn / Number of viable fetuses, left horn / Number of viable fetuses, right horn / Uterine weight, left horn / Uterine weight, right horn: 5 rats/group; for Uterine weight, left horn / Uterine weight, right horn: in g
[3] = test system: zona pellucida of blastocyst; experiment: In vitro removal (lysis) of the zona pellucida of a blastocyst; assay type: cell-based
Source text: To denude a blastocyst of its zona pellucide in vitro the fertilized ovum is removed from the uterus of the donor animal by known means. The blastocyst is then placed in a small volume of known compatable medium such as physiological saline and LHRH or an agonist is introduced into the medium. The course of removal of the zona pellucida may be readily followed with a microscope and the time period necessary for complete removal of the zona is related to the concentration of the releasing hormone, thereby permitting timed blastocyst release during egg transplant procedures. At 500 μg/μl LHRH in 0.9 percent saline the zona pellucida lyses in about 0.5 minutes; at 50 μg/μl in about 15 to 25 minutes and at 15 μg/μl in about 60 minutes. Recovery of the free blastocyst and transfer to the uterus of a properly prepared and timed mammalion species may then be effected by conventional transfer techniques under optimal timing conditions of both the fertilized egg and the uterine epithelium.

pregnancy = details: cited from earlier work
[4] = 100 μg intrauterine right horn D5
[5] = 200 μg intrauterine right horn D5
[6] = 300 μg intrauterine right horn D5
[7] = 500 μg intrauterine right horn D5
[8] = 1,000 μg intrauterine right horn D5
[9] = dose 1,000, single intrajugular (IV) D5
[10] = dose 1,000, single intravaginal (Vag) D5
[11] = 10 μg into right uterine horn day 5 after coitus, 4 rats
[12] = 100 μg into right uterine horn day 5 after coitus, 5 rats
[13] = 1,000 μg into right uterine horn day 5 after coitus, 4 rats

Luteinizing hormone releasing hormone [LHRH]
Number of placental sites, left horn [1, 4]: 0.1 ± 0.1
Number of placental sites, right horn (injected) [1, 4]: 0.1 ± 0.1
Number of viable fetuses, left horn [1, 4]: 5.7 ± 0.4
Number of viable fetuses, right horn (injected) [1, 4]: 3.2 ± 0.3
Uterine weight, left horn and contents [1, 4]: 19.1 ± 1.5
Uterine weight, right horn (injected) and contents [1, 4]: 12.0 ± 1.0
Number of placental sites, left horn [1, 5]: 0.1 ± 0.1
Number of placental sites, right horn (injected) [1, 5]: 1.6 ± 0.5
Number of viable fetuses, left horn [1, 5]: 5.4 ± 0.8
Number of viable fetuses, right horn (injected) [1, 5]: 1.7 ± 0.4
Uterine weight, left horn and contents [1, 5]: 19.4 ± 2.7
Uterine weight, right horn (injected) and contents [1, 5]: 6.5 ± 1.3
Number of placental sites, left horn [1, 6]: 0.7 ± 0.6
Number of placental sites, right horn (injected) [1, 6]: 1.3 ± 0.3
Number of viable fetuses, left horn [1, 6]: 6.5 ± 0.6
Number of viable fetuses, right horn (injected) [1, 6]: 1.5 ± 0.4
Uterine weight, left horn and contents [1, 6]: 21.2 ± 2.3
Uterine weight, right horn (injected) and contents [1, 6]: 6.9 ± 1.6
Number of placental sites, left horn [1, 7]: 0.5 ± 0.3
Number of placental sites, right horn (injected) [1, 7]: 1.5 ± 0.7
Number of viable fetuses, left horn [1, 7]: 6.1 ± 0.7
Number of viable fetuses, right horn (injected) [1, 7]: 1.3 ± 0.3
Uterine weight, left horn and contents [1, 7]: 21.8 ± 2.0
Uterine weight, right horn (injected) and contents [1, 7]: 6.0 ± 0.9
Number of placental sites, left horn [1, 8]: 0.3 ± 0.2
Number of placental sites, right horn (injected) [1, 8]: 2.3 ± 0.6
Number of viable fetuses, left horn [1, 8]: 6.9 ± 0.7
Number of viable fetuses, right horn (injected) [1, 8]: 0.8 ± 0.2 and 0.8
Uterine weight, left horn and contents [1, 8]: 24.3 ± 2.5
Uterine weight, right horn (injected) and contents [1, 8]: 4.3 ± 0.8
Number of placental sites vs control ([1]; 200-1000 μg intrauterine right horn D5): significant increase
Number of viable fetuses in the right horn vs control ([1]; all doses (100-1,000 μg) intrauterine right horn D5): significant reduction
Single intra-uterine treatment dose sufficient to prevent pregnancy [1]: about 1,000 μg
Effect on pregnancy (viable fetuses, uterine weight, placental sites) in either horn ([2]; 1000 μg via jugular vein or vagina on D5): failed to alter the pregnancy in either horn; also recorded: inactive; also recorded: no negative effects
Number of placental sites, left horn [2, 9]: 0.6±0.2
Number of placental sites, right horn [2, 9]: 0.2±0.2
Number of viable fetuses, left horn [2, 9]: 7.4±0.7
Number of viable fetuses, right horn [2, 9]: 5.4±1.0
Uterine weight, left horn [2, 9]: 26.3±3.0
Uterine weight, right horn [2, 9]: 18.2±3.9
Number of placental sites, left horn [2, 10]: 0.4±0.2
Number of placental sites, right horn [2, 10]: 0.2±0.2
Number of viable fetuses, left horn [2, 10]: 6.6±0.9
Number of viable fetuses, right horn [2, 10]: 7.4±0.8
Uterine weight, left horn [2, 10]: 20.5±2.9
Uterine weight, right horn [2, 10]: 21.4±2.0
Time to lysis of the zona pellucida ([3]; 15 μg/μl in 0.9 percent saline): about 60 minutes
Time to lysis of the zona pellucida ([3]; 500 μg/μl in 0.9 percent saline): about 0.5 minutes
Effect on number of viable fetuses or uterine weight (pregnancy; 1000 μg injection (s.c.) on D5, Humphrey et al.): failed to alter
Effect on ensuing pregnancy (pregnancy; acute subcutaneous injection of 5000 μg, Beattie and Corbin 1977): failed to inhibit the ensuing pregnancy

[D-Trp^6 -N-methyl-Leu^7 des-Gly NH2^10 ]LHRH ethylamide
Single intra-uterine treatment dose sufficient to prevent pregnancy [1]: 100 µg

[D-Trp^6, des-Gly-NH2^10 ]LHRH ethylamide
Viable Fetuses Mean, Left [1, 11]: 6.5
Viable Fetuses Mean, Right [1, 11]: 3.8
Viable Fetuses Mean, Left [1, 12]: 3.6
Viable Fetuses Mean, Right [1, 12]: 0.4
Viable Fetuses Mean, Left [1, 13]: 3.3
Viable Fetuses Mean, Right [1, 13]: 0.5

— patent publication US4248864A, “Reproduction control” (American Home Products Corporation, priority 1979, dated 1981)
